Results: ChEMBL document CHEMBL2346619, “Cardioprotective potential of N,α-L-rhamnopyranosyl vincosamide, an indole alkaloid, isolated from the leaves of Moringa oleifera in isoproterenol induced cardiotoxic rats: in vivo and in vitro studies” (Bioorg Med Chem Lett, 2013)
Converted amounts (≈) assume the structure as drawn.

Key:
Rattus norvegicus [1] = assay: Cardioprotective effect in isoproterenol-induced Wister albino rats assessed as inflammatory cells at 40 mg/kg, po for 7 days by light microscopy (reference value: 30.1%); format: functional
Rattus norvegicus [2] = assay: Cardioprotective effect in isoproterenol-induced Wister albino rats assessed as LOOH level in serum per mg protein at 40 mg/kg, po for 7 days (reference value: 7.67 +/- 1.07 noml/mg of protein); format: functional
Rattus norvegicus [3] = assay: Cardioprotective effect in isoproterenol-induced Wister albino rats assessed as inhibition of heart rate at 40 mg/kg, po for 7 days by Electrocardiographic assay (reference value: 430 +/- 5.16 beats/mins); format: functional
Rattus norvegicus [4] = assay: Effect on Wister albino rat SGPT level in serum at 40 mg/kg, po for 7 days (reference value: 30.25 +/- 3.17 U/L); format: ADME, organism-based; parameters: dose 40 mg/kg, route oral; conditions: in vivo, 168 h
Rattus norvegicus [5] = assay: Effect on Wister albino rat cTnT level in serum at 40 mg/kg, po for 7 days (reference value: 0.66 +/- 0.02 ng/ml); format: ADME, organism-based; parameters: dose 40 mg/kg, route oral; conditions: in vivo, 168 h
Rattus norvegicus [6] = assay: Cardioprotective effect in isoproterenol-induced Wister albino rats assessed as cTnT level in serum at 40 mg/kg, po for 7 days (reference value: 1.99 +/- 0.06 ng/ml); format: functional
Rattus norvegicus [7] = assay: Cardioprotective effect in isoproterenol-induced Wister albino rats assessed as tissue viability with less necrotic tissue at 40 mg/kg, po for 7 days by light microscopy (reference value: 52%); format: functional
Rattus norvegicus [8] = assay: Cardioprotective effect in isoproterenol-induced Wister albino rats assessed as CK-MB level in serum at 40 mg/kg, po for 7 days (reference value: 146.56 +/- 7.14 IU/L); format: functional
Rattus norvegicus [9] = assay: Effect on Wister albino rat CK-MB level in serum at 40 mg/kg, po for 7 days (reference value: 84.68 +/- 3.67 IU/L); format: ADME, organism-based; parameters: dose 40 mg/kg, route oral; conditions: in vivo, 168 h
Rattus norvegicus [10] = assay: Effect on Wister albino rat tissue degradation at 40 mg/kg, po by light microscopy (reference value: 0%); format: ADME, organism-based; parameters: dose 40 mg/kg, route oral; conditions: in vivo
Rattus norvegicus [11] = assay: Effect on Wister albino rat inflammatory cells at 40 mg/kg, po by light microscopy (reference value: 0%); format: ADME, organism-based; parameters: dose 40 mg/kg, route oral; conditions: in vivo
[12] = Antioxidant activity assessed as nitric oxide scavenging activity; format: functional
[13] = system: Radical scavenging activity; assay: Antioxidant activity assessed as DPPH radical scavenging activity; format: functional
Rattus norvegicus [14] = assay: Effect on Wister albino rat LDH level in serum at 40 mg/kg, po for 7 days (reference value: 29.64 +/- 6.71 IU/L); format: ADME, organism-based; parameters: dose 40 mg/kg, route oral; conditions: in vivo, 168 h
Rattus norvegicus [15] = assay: Cardioprotective effect in isoproterenol-induced Wister albino rats assessed as inhibition of ST-segment elevation at 40 mg/kg, po for 7 days by Electrocardiographic assay (reference value: 0.390 +/- 0.015 mV); format: functional
Rattus norvegicus [16] = assay: Effect on Wister albino rat heart rate elevation at 40 mg/kg, po by Electrocardiographic assay (reference value: 265 +/- 3.71 beats/mins); format: ADME, organism-based; parameters: dose 40 mg/kg, route oral; conditions: in vivo
[17] = Antioxidant activity assessed as super oxide scavenging activity; format: functional
Rattus norvegicus [18] = assay: Cardioprotective effect in isoproterenol-induced Wister albino rats assessed as MDA level in serum per mg protein at 40 mg/kg, po for 7 days (reference value: 2.76 +/- 0.39 nmol/h/mg of protein); format: functional
[19] = Antioxidant activity assessed as ABTS radical scavenging activity; format: functional
Rattus norvegicus [20] = assay: Cardioprotective effect in isoproterenol-induced Wister albino rats assessed as tissue degradation at 40 mg/kg, po for 7 days by light microscopy (reference value: 55.15%); format: functional
[21] = Antioxidant activity assessed as hydroxy radical scavenging activity; format: functional
Rattus norvegicus [22] = assay: Effect on Wister albino rat MDA level in serum per mg of protein at 40 mg/kg, po for 7 days (reference value: 0.67 +/- 0.03 nmol/h/mg of protein); format: ADME, organism-based; parameters: dose 40 mg/kg, route oral; conditions: in vivo, 168 h
Rattus norvegicus [23] = assay: Effect on Wister albino rat LOOH level in serum per mg of protein at 40 mg/kg, po for 7 days (reference value: 2.90 +/- 0.74 noml/mg of protein); format: ADME, organism-based; parameters: dose 40 mg/kg, route oral; conditions: in vivo, 168 h
Rattus norvegicus [24] = assay: Cardioprotective effect in isoproterenol-induced Wister albino rats assessed as LDH level in serum at 40 mg/kg, po for 7 days (reference value: 216.66 +/- 12.46 IU/L); format: functional
Rattus norvegicus [25] = assay: Cardioprotective effect in isoproterenol-induced Wister albino rats assessed as SGPT level in serum at 40 mg/kg, po for 7 days (reference value: 76.07 +/- 4.16 U/L); format: functional
Rattus norvegicus [26] = assay: Effect on Wister albino rat ST-segment elevation at 40 mg/kg, po by Electrocardiographic assay (reference value: 0.157 +/- 0.003 mV); format: ADME, organism-based; parameters: dose 40 mg/kg, route oral; conditions: in vivo

Activity (Rattus norvegicus [4]): 22.11 U/L
Activity (Rattus norvegicus [5]): 0.62 ng/mL
Activity (Rattus norvegicus [9]): 82.12 IU/L
Activity (Rattus norvegicus [10]): 0%
Activity (Rattus norvegicus [11]): 0%
IC50 [12]: 7.16 µg/mL (≈ 10.8 µM)
IC50 [13]: 37.76 µg/mL (≈ 57.2 µM)
Activity (Rattus norvegicus [14]): 117.34 IU/L
IC50 [17]: 16.71 µg/mL (≈ 25.3 µM)
IC50 [19]: 29.65 µg/mL (≈ 44.9 µM)
IC50 [21]: 4.95 µg/mL (≈ 7.49 µM)
Activity (Rattus norvegicus [22]): 0.79 nmol/h/mg protein
Activity (Rattus norvegicus [23]): 2.62 nmol
Activity (Rattus norvegicus [26]): 0.14 mV
Compound: C=C[C@H]1[C@H](O[C@@H]2O[C@H](CO)[C@@H](O)[C@H](O)[C@H]2O)OC=C2C(=O)N3CCc4c(n(O[C@@H]5O[C@@H](C)[C@H](O)[C@@H](O)[C@H]5O)c5ccccc45)[C@H]3C[C@H]21
Activity (Rattus norvegicus [1]): 0%
Activity (Rattus norvegicus [2]): 4.1 nmol
Activity (Rattus norvegicus [3]): 260 bpm
Activity (Rattus norvegicus [6]): 0.67 ng/mL
Activity (Rattus norvegicus [7]): 20%
Activity (Rattus norvegicus [8]): 92.01 IU/L
Activity (Rattus norvegicus [15]): 0.22 mV
Activity (Rattus norvegicus [16]): 270 bpm
Activity (Rattus norvegicus [18]): 0.99 nmol/h/mg protein
Activity (Rattus norvegicus [20]): 0%
Activity (Rattus norvegicus [24]): 160.72 IU/L
Activity (Rattus norvegicus [25]): 58.92 U/L
